Reference: patent publication US20230278974A1, “ANTITUMORAL ASCORBIC ACID ESTERS” (SUIGENERIS FARMACOSMETICS, S.L., priority 2020, published 2023)

Tested on: primary or metastatic human cancer cells from various origins (IGR39, IGR37, MW115, MW266.4, DLD1, SW480, HCT116, NUG-C4, COLO668, BXPC3, CAPAN2, RWP1)
Assay: Growth inhibition of human cancer cell lines (crystal violet staining, 96 well plates)
Type: cell-based
Settings: even at concentrations as low as 0.2 mM; 72 h treatment
Description: The BXPC3, CAPAN2, RWP1 cell lines from human pancreatic cancer were provided by the Biomedical Research Institute (IRB) Barcelona; the MW115 and IGR39 cell lines from human primary melanoma and MW 266.4 and IGR37 from human metastatic melanoma were provided by Dr. Manel Esteller from the Catalan Institute of Oncology (ICO) Barcelona (Vizoso M. et al., “Epigenetic activation of a cryptic TBC1D16 transcript enhances melanoma progression by targeting EGFR” Nat Med., 2015, vol 21(7), pp. 741-50); DLDL1, SW480 and HCT116 cell lines from human colon cancer were provided by Dra. Neus Agell from the Research Institute August Pi Sunyer (IDIBAPS) - University of Barcelona (UB); NUG-C4 and COLO668 cell lines from human gastric and lung cancers, respectively, were provided by the Center for Genomic Regulation (CRG) Barcelona. […]
The cells were resuspended by trypsin/EDTA digestion with 0.5% Trypsin-EDTA in the case of different human cancer cell lines, and 0.25% Trypsin-EDTA in the case of human primary endothelial cells. Once resuspended in culture medium, they were counted in Newbauer chamber after a 1:1 dilution with trypan blue. […]
The optical density values per well were obtained by a Biotek Synergy™2 multi-detection microplate reader, using a 590 nm filter and by scanning reading, obtaining the mean values per well.

With CCCCCCC1CCC(CCC(=O)OC[C@H](O)[C@H]2OC(=O)C(O)=C2O)CC1 (stereo partly drawn) [Compound Ib, (S)-2-((R)-3,4-Dihydroxy-5-Oxo-2,5-Dihydrofuran-2-Yl)-2-Hydroxyethyl 3-(4-Hexylcyclohexyl)Propanoate] the “inhibitory capacity on growth of cancer cells” value was “remarkable inhibitory capacity”.
